# From patent publication US7998952B2, “Thiolactams and uses thereof” (Millennium Pharmaceuticals, Inc., priority 2008, dated 2011)
# Target: T1, recombinant human PLK1[2-369]T210D (Homo sapiens, UniProt P53350, T210D)
# T1 construct: recombinant human PLK1[2-369]T210D; Smt (SUMO) fusion partner (N, cleaved yes); host or cells: E. coli
# Assay: PLK1 DELFIA Kinase Assay
# Assay type: biochemical
# Settings: 50 μM ATP, 2 μM peptide substrate, 0.3 nM enzyme, 90 minutes at room temperature
# Outline: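 E. coli-expressed human PLK1, cleaved from an Smt fusion after Ni2+ purification, is reacted with or without inhibitor for 90 minutes at room temperature and stopped with EDTA. Product is captured on Neutravidin plates and quantified by europium DELFIA time-resolved fluorescence.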
# T1 sequence (P53350 2-369 T210D): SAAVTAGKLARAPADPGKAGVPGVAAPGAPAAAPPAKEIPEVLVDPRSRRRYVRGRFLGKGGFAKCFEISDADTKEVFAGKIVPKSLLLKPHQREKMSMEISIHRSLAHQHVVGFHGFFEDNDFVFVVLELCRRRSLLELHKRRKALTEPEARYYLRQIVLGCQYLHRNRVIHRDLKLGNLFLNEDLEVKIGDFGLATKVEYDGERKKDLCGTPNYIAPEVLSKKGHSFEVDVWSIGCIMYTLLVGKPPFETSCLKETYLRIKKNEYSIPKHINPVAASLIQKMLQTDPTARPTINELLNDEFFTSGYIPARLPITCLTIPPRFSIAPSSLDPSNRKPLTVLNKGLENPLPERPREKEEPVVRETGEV
row,IC50,SMILES
1,5 to 25 nM,"Cc1nc(N2CCCC2)ccc1Nc1ncc2c(n1)-c1ccc(C(F)(F)F)cc1NC(=S)C2 [Compound I-110, 2-[(2-methyl-6-pyrrolidin-1-ylpyridin-3-yl)amino]-9-(trifluoromethyl)-5,7-dihydro-6H-pyrimido[5,4-d][1]benzazepine-6-thione]"
2,< 5 nM,Cc1nc2c(cc1Nc1ncc3c(n1)-c1ccc(C(F)(F)F)cc1NC(=S)C3)C[C@@H](N(C)C)CC2 [Compound I-114]
3,5 to 25 nM,"Cc1nc(C(=O)NC2CCN(C)CC2)ccc1Nc1ncc2c(n1)-c1ccc(Cl)cc1NC(=S)C2 [Compound I-116, 5-[(9-chloro-6-thioxo-6,7-dihydro-5H-pyrimido[5,4-d][1]benzazepin-2-yl)amino]-6-methyl-N-(1-methylpiperidin-4-yl)pyridine-2-carboxamide]"
4,5 to 25 nM,"Cc1nc(C(=O)NCCN(C)C)ccc1Nc1ncc2c(n1)-c1ccc(C(F)(F)F)cc1NC(=S)C2 [Compound I-118, N-[2-(dimethylamino)ethyl]-6-methyl-5-{[6-thioxo-9-(trifluoromethyl)-6,7-dihydro-5H-pyrimido[5,4-d][1]benzazepin-2-yl]amino}pyridine-2-carboxamide]"
5,5 to 25 nM,"Cc1nc(NC(=O)CN(C)C)ccc1Nc1ncc2c(n1)-c1ccc(C(F)(F)F)cc1NC(=S)C2 [Compound I-121, 2-(dimethylamino)-N-(6-methyl-5-{[6-thioxo-9-(trifluoromethyl)-6,7-dihydro-5H-pyrimido[5,4-d][1]benzazepin-2-yl]amino}pyridin-2-yl)acetamide]"
6,5 to 25 nM,"Cc1nc2c(cc1Nc1ncc3c(n1)-c1ccc(C(F)(F)F)cc1NC(=S)C3)CCC(N(C)C)C2 (stereo not drawn) [Compound I-122, 2-{[7-(dimethylamino)-2-methyl-5,6,7,8-tetrahydroquinolin-3-yl]amino}-9-(trifluoromethyl)-5,7-dihydro-6H-pyrimido[5,4-d][1]benzazepine-6-thione]"
7,5 to 25 nM,"Cc1nc(C(=O)NC2CCN(C)CC2)ccc1Nc1ncc2c(n1)-c1ccc(C(F)(F)F)cc1NC(=S)C2 [Compound I-123, 6-methyl-N-(1-methylpiperidin-4-yl)-5-{[6-thioxo-9-(trifluoromethyl)-6,7-dihydro-5H-pyrimido[5,4-d][1]benzazepin-2-yl]amino}pyridine-2-carboxamide]"

# More lines, now with the values behind:
row,SMILES,IC50
1,"Cc1nc(N(C)CCN(C)C)ccc1Nc1ncc2c(n1)-c1ccc(Cl)cc1NC(=S)C2 [Compound I-112, 9-chloro-2-({6-[[2-(dimethylamino)ethyl](methyl)amino]-2-methylpyridin-3-yl}amino)-5,7-dihydro-6H-pyrimido[5,4-d][1]benzazepine-6-thione]",5 to 25 nM
2,"Cc1nc2c(cc1Nc1ncc3c(n1)-c1ccc(C(F)(F)F)cc1NC(=S)C3)C[C@H](N(C)C)CC2 [Compound I-113, 2-{[(6R)-6-(dimethylamino)-2-methyl-5,6,7,8-tetrahydroquinolin-3-yl]amino}-9-(trifluoromethyl)-5,7-dihydro-6H-pyrimido[5,4-d][1]benzazepine-6-thione]",< 5 nM
3,"Cc1nc2c(cc1Nc1ncc3c(n1)-c1ccc(C(F)(F)F)cc1NC(=S)C3)CCCN2 [Compound I-115, 2-[(2-methyl-5,6,7,8-tetrahydro-1,8-naphthyridin-3-yl)amino]-9-(trifluoromethyl)-5,7-dihydro-6H-pyrimido[5,4-d][1]benzazepine-6-thione]",< 5 nM
4,"Cc1ncc(CCCN(C)C)cc1Nc1ncc2c(n1)-c1cc(C(F)(F)F)ccc1NC(=S)C2 [Compound I-117, 2-({5-[3-(dimethylamino)propyl]-2-methylpyridin-3-yl}amino)-10-(trifluoromethyl)-5,7-dihydro-6H-pyrimido[5,4-d][1]benzazepine-6-thione]",5 to 25 nM
5,"Cc1ncc(CCCN(C)C)cc1Nc1ncc2c(n1)-c1cc(CCCN(C)C)c(Cl)cc1NC(=S)C2 [Compound I-120, 9-chloro-10-[3-(dimethylamino)propyl]-2-({5-[3-(dimethylamino)propyl]-2-methylpyridin-3-yl}amino)-5,7-dihydro-6H-pyrimido[5,4-d][1]benzazepine-6-thione]",> 25 nM
